Values joined by “and” are separate entries in the source; they are usually repeats but may differ in a detail not shown here. Equal entries are not always repeated. Where two headings read alike, the source gives them in different places. Non-standard residues stand in square brackets, D forms with d. Residues, ends and D or L forms follow the SMILES beside them. dDab = NCC[C@@H](N)C(=O)O
Tests used:
[1] = tested on: A. baumannii clinical isolates; assay: MIC, microtiter dilution in Mueller Hinton medium; assay type: cell-based; conditions: geometric mean, 7 clinical isolates of A. baumannii
Source text: (§2) Gram-Negative Bacterial Strains used in this Study: All the A. baumannii strains used in this study were 1) obtained from the collection of Dr. Anthony A. Campagnari at the University of Buffalo and originally isolated from different patients and organs/tissues (strain 649, blood; strain 689, groin; strain 759, gluteus; strain 884, axilla; strain 985, pleural fluid); 2) were purchased from the American Type Culture Collection (ATCC, Manassas, Va., USA) (strain ATCC 17978, fatal meningitis; and strain ATCC 19606, urine); 3) obtained from MERCK (M89941, M89949, M89951, M89952, M89953, M89955 and M89963). These seven A. baumannii strains were resistant to polymyxin B and polymyxin E (Colistin).
(§3) Measurement of Antimicrobial Activity (MIC): The minimal inhibitory concentration (MIC) is defined as the lowest peptide concentration that inhibited bacterial growth. MICs were measured by a standard microtiter dilution method in Mueller Hinton (MH) medium. Briefly, cells were grown overnight at 37° C. in MH broth and were diluted in the same medium. […] The plates were incubated at 37° C. for 24 h, and the MICs were determined.

[2] = tested on: A. baumannii strains resistant to Polymyxin B and Colistin; assay type: cell-based; conditions: geometric mean, 7 A. baumannii strains resistant to polymyxin B and colistin
Source text: as §2, §3

[3] = tested on: clinical isolates of Pseudomonas aeruginosa; assay type: cell-based; conditions: geometric mean, 6 clinical isolates of P. aeruginosa
Procedure: as §3

Hemolytic activity = assay type: cell-based, human; conditions: 1% human erythrocytes (red blood cells), pH 7.4
Procedure: (§1) Hemoglobin release was determined spectrophotometrically at 570 nm. […] […] […] With the peptides used in this study the inventors used the HC30/MIC ratio value to calculate the therapeutic index.

human red blood cells = assay: Hemolytic activity; assay type: cell-based; conditions: for HC50: 50% hemolysis of human red blood cells after 18 hours at 37° C.
Procedure: as §1

[4] = RP-HPLC retention time as measure of overall peptide hydrophobicity; assay type: physicochemical; conditions: Zorbax SB-C8, 0.5% B/min from 2% B, 30° C. (Table 3)
Source text: Retention behavior in RP-HPLC is an excellent method to represent overall peptide hydrophobicity. Retention times of peptides are highly sensitive to the conformational status of the peptides upon interaction with the hydrophobic environment of the column matrix (Jiang, Z., et al., Chem. Biol. Drug Des. 2011; Chen, Y., et al., J. Peptide Research 2002, supra). The non-polar faces of amphipathic alpha-helical and amphipathic cyclic beta-sheet peptides represent a preferred binding domain for interaction with the hydrophobic matrix of the reversed-phase column (Zhou, N. E., et al., Peptide Research 1990, 3:8-20). In this study, the observed peptide hydrophobicity was determined by RP-HPLC retention time as described in the methods section and are relative hydrophobicities because they are dependent on the TFA concentration and organic solvent in the mobile phase, gradient rate, temperature, flow rate and the column used. […]

[5] = 50% hemolysis of human red blood cells after 18 hours at 37° C., read-out: HC50

Compound	MICGM [1]	MICGM [2]	MICGM [3]	HC50 at 18 h (Hemolytic activity; [5])	HC50 (human red blood cells)	tR, relative hydrophilicity/hydrophobicity [4]	HC50 at 18 h (Hemolytic activity; human)	Hemolysis of human red blood cells, in words (human red blood cells)
CC(=O)N[C@H](C)C(=O)N[C@H](CC(C)C)C(=O)N[C@H](CCCCN)C(=O)N[C@H](CCCCN)C(=O)N[C@H](CC(C)C)C(=O)N[C@H](CC(C)C)C(=O)N[C@H](CCCCN)C(=O)N[C@@H](C(=O)N[C@H](CC(C)C)C(=O)N[C@H](CO)C(=O)N[C@H](CCCCN)C(=O)N[C@H](C)C(=O)N[C@H](CCCNC(=N)N)C(=O)N[C@H](C)C(=O)N[C@H](C)C(=O)N[C@H](CCCNC(=N)N)C(=O)N[C@H](CC(C)C)C(=O)N[C@H](CCCCN)C(=O)N[C@@H](C(=O)N[C@H](CC(C)C)C(=O)N[C@H](CC(C)C)C(=O)N[C@H](CCCCN)C(=O)N[C@H](C)C(=O)N[C@H](CC(C)C)C(=O)N[C@H](CO)C(=O)N[C@H](CCCCN)C(N)=O)[C@H](C)O)[C@H](C)O [D41(Arg13/Arg16)]	0.6 µM	0.8 µM	1.1 µM	7.2 µM and 21 µg/mL	7.2 µM	–	–	–
CC(=O)N[C@H](C)C(=O)N[C@H](CC(C)C)C(=O)N[C@H](CCCCN)C(=O)N[C@H](CCCCN)C(=O)N[C@H](CC(C)C)C(=O)N[C@H](CC(C)C)C(=O)N[C@H](CCCCN)C(=O)N[C@@H](C(=O)N[C@H](CC(C)C)C(=O)N[C@H](CO)C(=O)N[C@H](CCCCN)C(=O)N[C@H](C)C(=O)N[C@H](CCN)C(=O)N[C@H](C)C(=O)N[C@H](C)C(=O)N[C@H](CCN)C(=O)N[C@H](CC(C)C)C(=O)N[C@H](CCCCN)C(=O)N[C@@H](C(=O)N[C@H](CC(C)C)C(=O)N[C@H](CC(C)C)C(=O)N[C@H](CCCCN)C(=O)N[C@H](C)C(=O)N[C@H](CC(C)C)C(=O)N[C@H](CO)C(=O)N[C@H](CCCCN)C(N)=O)[C@H](C)O)[C@H](C)O [D41(Dbu13/Dbu16)] (Ac-[dA][dL][dK][dK][dL][dL][dK][dT][dL][dS][dK][dA][dDab][dA][dA][dDab][dL][dK][dT][dL][dL][dK][dA][dL][dS][dK]-NH2; N-terminus and C-terminus assumed)	0.6 µM	0.5 µM	0.8 µM	24.3 µM and 68 µg/mL	24.3 µM	–	–	–
CC(=O)N[C@H](C)C(=O)N[C@H](CC(C)C)C(=O)N[C@H](CCCCN)C(=O)N[C@H](CCCCN)C(=O)N[C@H](CC(C)C)C(=O)N[C@H](CC(C)C)C(=O)N[C@H](CCCCN)C(=O)N[C@@H](C(=O)N[C@H](CC(C)C)C(=O)N[C@H](CO)C(=O)N[C@H](CCCCN)C(=O)N[C@H](C)C(=O)N[C@H](CN)C(=O)N[C@H](C)C(=O)N[C@H](C)C(=O)N[C@H](CN)C(=O)N[C@H](CC(C)C)C(=O)N[C@H](CCCCN)C(=O)N[C@@H](C(=O)N[C@H](CC(C)C)C(=O)N[C@H](CC(C)C)C(=O)N[C@H](CCCCN)C(=O)N[C@H](C)C(=O)N[C@H](CC(C)C)C(=O)N[C@H](CO)C(=O)N[C@H](CCCCN)C(N)=O)[C@H](C)O)[C@H](C)O [D41(Dpr13/Dpr16)]	0.6 µM	0.7 µM	1.3 µM	22.6 µM and 62.5 µg/mL	22.6 µM	–	–	–
CC(=O)N[C@H](C)C(=O)N[C@H](CC(C)C)C(=O)N[C@H](CCCCN)C(=O)N[C@H](CCCCN)C(=O)N[C@H](CC(C)C)C(=O)N[C@H](CC(C)C)C(=O)N[C@H](CCCCN)C(=O)N[C@@H](C(=O)N[C@H](CC(C)C)C(=O)N[C@H](CO)C(=O)N[C@H](CCCCN)C(=O)N[C@H](C)C(=O)N[C@H](CCCCN)C(=O)N[C@H](C)C(=O)N[C@H](C)C(=O)N[C@H](CCCCN)C(=O)N[C@H](CC(C)C)C(=O)N[C@H](CCCCN)C(=O)N[C@@H](C(=O)N[C@H](CC(C)C)C(=O)N[C@H](CC(C)C)C(=O)N[C@H](CCCCN)C(=O)N[C@H](C)C(=O)N[C@H](CC(C)C)C(=O)N[C@H](CO)C(=O)N[C@H](CCCCN)C(N)=O)[C@H](C)O)[C@H](C)O [D41(Lys13/Lys16)]	0.4 µM	0.4 µM	0.8 µM	13.7 µM and 39 µg/mL	13.7 µM	–	–	–
CC(=O)N[C@H](C)C(=O)N[C@H](CC(C)C)C(=O)N[C@H](CCCCN)C(=O)N[C@H](CCCCN)C(=O)N[C@H](CC(C)C)C(=O)N[C@H](CC(C)C)C(=O)N[C@H](CCCCN)C(=O)N[C@@H](C(=O)N[C@H](CC(C)C)C(=O)N[C@H](CO)C(=O)N[C@H](CCCCN)C(=O)N[C@H](C)C(=O)N[C@H](CCCN)C(=O)N[C@H](C)C(=O)N[C@H](C)C(=O)N[C@H](CCCN)C(=O)N[C@H](CC(C)C)C(=O)N[C@H](CCCCN)C(=O)N[C@@H](C(=O)N[C@H](CC(C)C)C(=O)N[C@H](CC(C)C)C(=O)N[C@H](CCCCN)C(=O)N[C@H](C)C(=O)N[C@H](CC(C)C)C(=O)N[C@H](CO)C(=O)N[C@H](CCCCN)C(N)=O)[C@H](C)O)[C@H](C)O [D41(Orn13/Orn16)]	0.8 µM	0.6 µM	1.0 µM	34 µM and 96 µg/mL	34.0 µM	–	–	–
CC(=O)N[C@H](CCCCN)C(=O)N[C@H](CC(C)C)C(=O)N[C@H](CCN)C(=O)N[C@H](CO)C(=O)N[C@H](CC(C)C)C(=O)N[C@H](CC(C)C)C(=O)N[C@H](CCN)C(=O)N[C@@H](C(=O)N[C@H](CC(C)C)C(=O)N[C@H](CO)C(=O)N[C@H](C)C(=O)N[C@H](C)C(=O)N[C@H](CCCCN)C(=O)N[C@H](CCN)C(=O)N[C@H](CCN)C(=O)N[C@H](CCCCN)C(=O)N[C@H](CC(C)C)C(=O)N[C@H](C)C(=O)N[C@@H](C(=O)N[C@H](CC(C)C)C(=O)N[C@H](CC(C)C)C(=O)N[C@H](CCN)C(=O)N[C@H](C)C(=O)N[C@H](CC(C)C)C(=O)N[C@H](CO)C(=O)N[C@H](CO)C(N)=O)[C@H](C)O)[C@H](C)O [Peptide D104, Ac-KL(Dbu)SLL(Dbu)TLSAAK(Dbu)(Dbu)KLATLL(Dbu)ALSS-amide] (Ac-[dK][dL][dDab][dS][dL][dL][dDab][dT][dL][dS][dA][dA][dK][dDab][dDab][dK][dL][dA][dT][dL][dL][dDab][dA][dL][dS][dS]-NH2)	–	–	–	–	–	59.2 min	> 4000 µg/mL and > 1.49 mM	basically no hemolysis

From patent US10874745B2, “Antimicrobial peptides and methods of treating gram-negative pathogens: polar and non-polar face analogs” (priority 2017, dated 2020)
